# Test results taken from patent publication US20140024638A1, “TREATMENT OF COGNITIVE DYSFUNCTION IN SCHIZOPHRENIA” (TARGACEPT, INC., priority 2011, published 2014).
# Columns and labels:
# [1] = tested on: patients with schizophrenia; assay: CogState Identification task (attention), Phase 2 trial; assay type: in vivo, human; conditions: for CogState Identification: Mean (SEM): total population, subjects meeting data integrity criteria
# Experimental: (§1) The double blind, placebo controlled Phase 2 trial was conducted at 7 sites in the United States and 12 sites in India. […] Of the randomized patients, approximately 69% were male and approximately 46% were users of tobacco products. […] The primary efficacy outcome measure was GMLT, and the trial included a number of other scales as secondary efficacy outcome measures.
# [2] = tested on: patients with schizophrenia; assay: Groton Maze Learning Task (GMLT) of the CogState Schizophrenia Battery, Phase 2 trial; assay type: in vivo, human; conditions: for GML (Total Error) LOG: Adjusted Mean / GML (Total Error) LOG: Mean Difference ± SE between TC-5619 and Placebo (Placebo-TC5619): All Patients; for GMLT primary efficacy outcome measure: result against protocol criteria: positive outcome = superiority over placebo, one-sided p-value <0.10 after adjusting for 3 comparisons (Weeks 4, 8, 12), adjusted p-value=0.054, unadjusted p 0.018 at 4 weeks, 0.041 at 12 weeks; for GMLT log (10) transformed: Mean (SE): tobacco users
# Experimental: as §1
# The GMLT is a computerized test designed to assess executive function (the ability to organize cognitive processes, including the ability to plan, prioritize, stop and start activities, shift from one activity to another activity and to monitor one's own behavior). Impaired executive function is thought to be an important aspect of cognitive dysfunction in schizophrenia.
# [3] = tested on: patients with schizophrenia; assay: CogState Social-Emotional Cognition task, Phase 2 trial; assay type: in vivo, human; conditions: for CogState Social-Emotional Cognition: Mean (SE): tobacco users meeting data integrity criteria; for CogState Social-Emotional Cognition: Mean (SEM): total population, subjects meeting data integrity criteria
# Experimental: as §1
# healthy volunteers = assay: phase 1 trials in healthy volunteers; assay type: in vivo, human
# [4] = water solubility (salt screening); assay type: physicochemical
# [5] = tested on: patients with schizophrenia; assay: CogState International Shopping List (verbal learning), Phase 2 trial; design: species or system human; conditions: in vivo
# Experimental: as §1
# [6] = tested on: patients with schizophrenia; assay: CogState Detection task (psychomotor speed), Phase 2 trial; assay type: in vivo, human; conditions: for CogState Detection: Mean (SE): tobacco users meeting data integrity criteria; for CogState Detection: Mean (SEM): total population, subjects meeting data integrity criteria
# Experimental: as §1
# [7] = tested on: patients with schizophrenia; assay: Subject Global Impression - Cognition scale (SGI-Cog), Phase 2 trial; assay type: in vivo, human; conditions: for SGI-COGNITION TOTAL BY PATIENT: Adjusted Mean / SGI-COGNITION TOTAL BY PATIENT: Mean Difference ± SE between TC-5619 and Placebo (Placebo-TC5619): All Patients; for SGI-Cog: Mean (SE): tobacco users; for SGI-Cog: Mean (SEM): total population
# Experimental: as §1
# [8] = Week 8, 5 mg daily, 1-tailed p = 0.491
smiles,measurement,setting,value
"O=C(N[C@@H]1C2CCN(CC2)[C@H]1Cc1cccnc1)c1cc2ccccc2o1 (single isomer, unassigned) [TC-5619]",CogState Identification: Mean (SE),"[1]; tobacco users meeting data integrity criteria, Week 12, 25 mg daily, 1-tailed p = 0.057",−0.026 (0.016); p = 0.057
same,CogState Identification: Mean (SEM),"[1]; Week 4, 1 mg daily, 1-tailed p = 0.311",−0.005 (0.011); p = 0.311
same,CogState Identification: Mean (SEM),"[1]; Week 8, 5 mg daily, 1-tailed p = 0.111",−0.014 (0.012); p = 0.111
same,CogState Identification: Mean (SEM),"[1]; Week 12, 25 mg daily, 1-tailed p = 0.063",−0.017 (0.011); p = 0.063
same,GML (Total Error) LOG: Adjusted Mean,"[2]; Week 1, 1 mg daily, SE 0.01, placebo −0.02",−0.01
same,GML (Total Error) LOG: Mean Difference ± SE between TC-5619 and Placebo (Placebo-TC5619),"[2]; Week 1, 1 mg daily, one-sided 90% CI (−0.03, ∞), one-sided P 0.6709",−0.01 ± 0.02
same,GML (Total Error) LOG: Adjusted Mean,"[2]; Week 4, 1 mg daily, SE 0.02, placebo 0.02",−0.03
same,GML (Total Error) LOG: Mean Difference ± SE between TC-5619 and Placebo (Placebo-TC5619),"[2]; Week 4, 1 mg daily, one-sided 90% CI (0.02, ∞), one-sided P 0.0180",0.05 ± 0.02
same,GML (Total Error) LOG: Adjusted Mean,"[2]; Week 8, 5 mg daily, SE 0.02, placebo −0.02",−0.05
same,GML (Total Error) LOG: Mean Difference ± SE between TC-5619 and Placebo (Placebo-TC5619),"[2]; Week 8, 5 mg daily, one-sided 90% CI (−0.00, ∞), one-sided P 0.1308",0.02 ± 0.02
same,GML (Total Error) LOG: Adjusted Mean,"[2]; Week 12, 25 mg daily, SE 0.02, placebo −0.02",−0.06
same,GML (Total Error) LOG: Mean Difference ± SE between TC-5619 and Placebo (Placebo-TC5619),"[2]; Week 12, 25 mg daily, one-sided 90% CI (0.01, ∞), one-sided P 0.0405",0.04 ± 0.02
same,GMLT activity in non-users of tobacco,[2]; non-users,no activity
same,GMLT primary efficacy outcome measure: result against protocol criteria,[2],met the pre-defined success criteria
same,GMLT primary efficacy outcome measure: result against protocol criteria,"[2]; listed as (2S,3R)—N-(2-((3-pyridinyl)methyl)-1-azabicyclo[2.2.2]oct-3-yl)benzofuran-2-carb",met the protocol criteria for a positive result
same,"GMLT results, patients at study sites in United States as compared to study sites in India",[2]; subgroup comparison,favorable
same,"GMLT results, tobacco users as compared to non-users",[2]; subgroup comparison,favorable for tobacco users as compared to non-users
same,GMLT log (10) transformed: Mean (SE),"[2]; Week 4, 1 mg daily, 1-tailed p = 0.014",0.06 (.03) p = 0.014
same,GMLT log (10) transformed: Mean (SE),"[2]; Week 8, 5 mg daily, 1-tailed p = 0.086",0.04 (0.03) p = 0.086
same,GMLT log (10) transformed: Mean (SE),"[2]; Week 12, 25 mg daily, 1-tailed p = 0.002",0.07 (0.02) p = 0.002
same,GMLT log (10) transformed: Mean (SEM),"[2]; total population (tobacco users and non-users), Week 4, 1 mg daily, 1-tailed p = 0.018",0.05 (0.02); p = 0.018
same,GMLT log (10) transformed: Mean (SEM),"[2]; total population, Week 8, 5 mg daily, 1-tailed p = 0.131",0.02 (0.02); p = 0.131
same,GMLT log (10) transformed: Mean (SEM),"[2]; total population, Week 12, 25 mg daily, 1-tailed p = 0.041",0.04 (0.02); p = 0.041
same,CogState Social-Emotional Cognition: Mean (SE),"[3]; Week 4, 1 mg daily, 1-tailed p = 0.632",−0.010 (0.028); p = 0.632
same,CogState Social-Emotional Cognition: Mean (SE),"[3]; Week 8, 5 mg daily, 1-tailed p = 0.625",−0.009 (0.029); p = 0.625
same,CogState Social-Emotional Cognition: Mean (SE),"[3]; Week 12, 25 mg daily, 1-tailed p = 0.752",−0.019 (0.027); p = 0.752
same,CogState Social-Emotional Cognition: Mean (SEM),"[3]; Week 4, 1 mg daily, 1-tailed p = 0.259",0.013 (0.020); p = 0.259
same,CogState Social-Emotional Cognition: Mean (SEM),"[3]; Week 8, 5 mg daily, 1-tailed p = 0.217",0.015 (0.020); p = 0.217
same,CogState Social-Emotional Cognition: Mean (SEM),"[3]; Week 12, 25 mg daily, 1-tailed p = 0.546",−0.002 (0.020); p = 0.546
same,attention,healthy volunteers; 6.7 mg administered,robust improvement in attention
same,tolerability,healthy volunteers; phase 1 trials,generally well tolerated
same,water solubility,[4],very limited
same,"CogState International Shopping List (verbal learning), result in words",[5],statistically significant results of improvement
same,"CogState detection (psychomotor speed), result in words",[6]; in vivo,statistically significant results of improvement
same,CogState Detection: Mean (SE),"[6]; Week 4, 1 mg daily, 1-tailed p = 0.254",−0.014 (0.021); p = 0.254
same,CogState Detection: Mean (SE),[6]; [8],−0.000 (0.021); p = 0.491
same,CogState Detection: Mean (SE),"[6]; Week 12, 25 mg daily, 1-tailed p = 0.265",−0.013 0.021); p = 0.265 ^
same,CogState Detection: Mean (SEM),"[6]; Week 4, 1 mg daily, 1-tailed p = 0.693",0.007 (0.015); p = 0.693
same,CogState Detection: Mean (SEM),"[6]; Week 8, 5 mg daily, 1-tailed p = 0.650",0.006 (0.014) p = 0.650^
same,CogState Detection: Mean (SEM),"[6]; Week 12, 25 mg daily, 1-tailed p = 0.567",0.002 (0.015) p = 0.567^
same,SGI-COGNITION TOTAL BY PATIENT: Adjusted Mean,"[7]; Week 1, 1 mg daily, SE 0.19, placebo 11.37",11.18
same,SGI-COGNITION TOTAL BY PATIENT: Mean Difference ± SE between TC-5619 and Placebo (Placebo-TC5619),"[7]; Week 1, 1 mg daily, one-sided 90% CI (−0.07, ∞), one-sided P 0.1757",0.19 ± 0.20
same,SGI-COGNITION TOTAL BY PATIENT: Adjusted Mean,"[7]; Week 4, 1 mg daily, SE 0.24, placebo 10.65",10.60
same,SGI-COGNITION TOTAL BY PATIENT: Mean Difference ± SE between TC-5619 and Placebo (Placebo-TC5619),"[7]; Week 4, 1 mg daily, one-sided 90% CI (−0.31, ∞), one-sided P 0.4282",0.05 ± 0.28
same,SGI-COGNITION TOTAL BY PATIENT: Adjusted Mean,"[7]; Week 8, 5 mg daily, SE 0.29, placebo 9.80",9.79
same,SGI-COGNITION TOTAL BY PATIENT: Mean Difference ± SE between TC-5619 and Placebo (Placebo-TC5619),"[7]; Week 8, 5 mg daily, one-sided 90% CI (−0.45, ∞), one-sided P 0.4914",0.01 ± 0.36
same,SGI-COGNITION TOTAL BY PATIENT: Adjusted Mean,"[7]; Week 12, 25 mg daily, SE 0.31, placebo 9.61",8.95
same,SGI-COGNITION TOTAL BY PATIENT: Mean Difference ± SE between TC-5619 and Placebo (Placebo-TC5619),"[7]; Week 12, 25 mg daily, one-sided 90% CI (−0.16, ∞), one-sided P 0.0455",0.66 ± 0.39
same,"Subject Global Impression - Cognition scale, result in words","[7]; secondary outcome measure, patient self-assessment of cognitive change",encouraging efficacy signals
same,SGI-Cog: Mean (SE),"[7]; Week 4, 1 mg daily, 1-tailed p = 0.606",−0.13 (0.47); p = 0.606
same,SGI-Cog: Mean (SE),"[7]; Week 8, 5 mg daily, 1-tailed p = 0.314",0.24 (0.49); p = 0.314
same,SGI-Cog: Mean (SE),"[7]; Week 12, 25 mg daily, 1-tailed p = 0.109",0.65 (0.52); p = 0.109
same,SGI-Cog: Mean (SEM),"[7]; Week 4, 1 mg daily, 1-tailed p = 0.428",0.05 (0.28); p = 0.428
same,SGI-Cog: Mean (SEM),[7]; [8],0.01 (0.36); p = 0.491
same,SGI-Cog: Mean (SEM),"[7]; Week 12, 25 mg daily, 1-tailed p = 0.046",0.66 (0.39); p = 0.046
